≈ marks a conversion by molar mass, not a printed value. Like-named read-outs stand apart in the source and are kept apart here.
How the values were obtained:
[1] = tested on: Mycobacterium tuberculosis H37Ra ATCC 25177; assay: In vitro antimycobacterial evaluation (alamarBlue, MIC) against M. tuberculosis; format: cell-based; details: 168 h, M. tuberculosis H37Ra ATCC 25177, MIC = 90% or greater (IC90) reduction of growth, 7 days
Method: The evaluation of the in vitro antimycobacterial activity of the compounds was performed against Mycobacterium tuberculosis H37Ra ATCC 25177 (MT), M. kansasii DSM 44162 (MK) and M. smegmatis ATCC 700084 (MS), see Table 1. To lower risk and make manipulation in the laboratory easier, surrogate model pathogens for M. tuberculosis can be used in laboratory studies. Avirulent M. tuberculosis strain H37Ra is very closely related to and has similar pathology as human-infecting M. tuberculosis strains, making it a good model for study especially because of the lower risk for laboratory workers. M. kansasii, the most virulent of the NTM, causes nontuberculous mycobacterial lung infections, which are now very common, and can be indistinguishable from tuberculosis. M. smegmatis is an ideal representative of a fast-growing nonpathogenic microorganism, particularly useful in studying basic cellular processes of special relevance to pathogenic mycobacteria. Therefore additionally M. kansasii and M. smegmatis were chosen as model species for screening of prospective antimycobacterial drugs to control mycobacterial diseases. The potency of the compounds was expressed as the minimum inhibitory concentration (MIC) that is defined for mycobacteria as 90% or greater (IC90) reduction of growth in comparison with the control.
Mycobacterium tuberculosis H37Ra ATCC 25177 was grown in Middlebrook broth (MB), supplemented with Oleic-Albumin-Dextrose-Catalase (OADC) supplement (Becton, Dickinson & Comp., Franklin Lakes, NJ, USA) and mycobactin J (2 μg/mL). At log phase growth, a culture sample (10 mL) was centrifuged at 15,000 rpm/20 min using a bench top centrifuge (Model CR 4-12, Jouan Inc., Winchester, VA, USA). Following the removal of the supernatant, the pellet was washed in fresh Middlebrook 7H9GC broth and re-suspended in fresh, ODAC-supplemented MB (10 mL). The turbidity was adjusted to match McFarland standard No. 1 (3 × 10^8 cfu) with MB broth. A further 1:20 dilution of the culture was then performed in MB broth. The antimicrobial susceptibility of M. tuberculosis was investigated in a 96-well plate format. In these experiments, sterile deionised water (300 µL) was added to all outer-perimeter wells of the plates to minimize evaporation of the medium in the test wells during incubation. Each evaluated compound (100 µL) was incubated with M. tuberculosis (100 µL). Dilutions of each compound were prepared in duplicate. For all synthesized compounds, final concentrations ranged from 1000 μg/mL to 8 μg/mL. All compounds were dissolved in DMSO, and subsequent dilutions were made in supplemented MB. The plates were sealed with parafilm and incubated at 37 °C for 7 days. Following incubation, a 10% addition of alamarBlue (AbD Serotec, Kidlington, UK) was mixed into each well, and readings at 570 nm and 600 nm were taken, initially for background subtraction and subsequently after 24 h re-incubation. The background subtraction is necessary for strongly coloured compounds, where the colour may interfere with the interpretation of any colour change. For non-interfering compounds, a blue colour in the well was interpreted as the absence of growth, and a pink colour was scored as growth.
The minimum inhibitory concentration (MIC) was defined as the lowest concentration of the compound at which no visible bacterial growth was observed, i.e., the MIC is the lowest concentration that prevented a visual colour change from blue to pink. MIC is defined for mycobacteria as 90% or greater (IC90) reduction of growth in comparison with the control. The MIC/IC90 value is routinely and widely used in bacterial assays and is a standard detection limit according to the Clinical and Laboratory Standards Institute (CLSI, www.clsi.org). Rifampicin and isoniazid (Sigma-Aldrich) were used as the standards as they are clinically used antimycobacterial drugs.

[2] = tested on: Mycobacterium kansasii DSM 44162; assay: In vitro antimycobacterial evaluation (broth dilution micro-method, MIC) against M. kansasii; format: cell-based; details: DSM44162, 168 h, M. kansasii DSM 44162, MIC = IC90, 7 days incubation, visual
[3] = tested on: human monocytic leukemia THP-1 cells; assay: In vitro antiproliferative assay (WST-1); details: THP-1, 24 h, read-out: IC50 (antiproliferative activity)
Method: Human monocytic leukemia THP-1 cells were used for in vitro antiproliferative assay. Cells were obtained from the European Collection of Cell Cultures (ECACC, Salisbury, UK) and routinely cultured in RPMI 1640 medium supplemented with 10% fetal bovine serum, 2% L-glutamine, 1% penicillin and streptomycin at 37 °C with 5% CO2. Cells were passaged at approximately one-week intervals. Antiproliferative activity of the compounds was determined using a Water Soluble Tetrazolium Salts-1 (WST-1, 2-(4-iodophenyl)-3-(4-nitrophenyl)-5-(2,4-disulfophenyl)-2H-tetrazolium) assay kit (Roche Diagnostics, Mannheim, Germany) according to the manufacturer’s instructions. The tested compounds were dissolved in DMSO and added in five increasing concentrations (0.37, 1.1, 3.3, 10 and 30 μM) to the cell suspension in the culture RPMI 1640 medium. The maximum concentration of DMSO in the assays never exceeded 0.1%. Subsequently, the cells were incubated for 24 h at 37 °C with 5% CO2. For WST-1 assays, cells were seeded into 96-well plates (5 × 10^4 cells/well in 100 μL culture medium) in triplicate in serum-free RPMI 1640 medium, and measurements were taken 24 h after the treatment with the compounds. The median inhibition concentration values, IC50, were deduced through the production of a dose-response curve. All data were evaluated using GraphPad Prism 5.00 software (GraphPad Software, San Diego, CA, USA).

M. smegmatis ATCC 700084 = assay: In vitro antimycobacterial evaluation (broth dilution micro-method, MIC) against M. smegmatis; format: cell-based; details: Mycolicibacterium smegmatis, ATCC700084, 72 h; Mycobacterium smegmatis ATCC 700084; MIC = IC90; 3 days incubation, visual
[4] = tested on: Mycobacterium tuberculosis H37Ra ATCC 25177; assay: MTT assay, viability of M. tuberculosis H37Ra; format: cell-based; details: at the tested concentration equal to MICs; 7 days; positive result when viability less than 70%
Method: The MTT assay is a well-characterized method of assessing cell growth through measurement of respiration. For the purpose of this assay, a positive result was recorded when the MTT measured viability of M. tuberculosis H37Ra was less than 70% after exposure to the MIC of each test compound.
For the MTT (3-(4,5-dimethylthiazol-2-yl)-2,5-diphenyltetrazolium bromide) assay, the outer wells of a 96-well plate were filled with 200 µL of sterile water, and the inner wells were filled with 100 µL of the tested compound at the MIC to be examined. Compounds were prepared as previously stated and diluted in Middlebrook media to achieve the desired concentration. Mycobacterium tuberculosis H37Ra ATCC 25177 was suspended in ODAC supplemented Middlebrook broth at a MacFarland standard of 1.0 and then diluted 1:20, using Middlebrook broth as a diluent. The diluted mycobacteria (100 µL) were added to each well containing the compound to be tested. A negative growth control was composed of 100 µL of DMSO and 100 µL of the media, and the diluted mycobacteria in broth absent of inhibiting compounds were used as a positive growth control. All compounds and controls were prepared in triplicate. Plates were incubated at 37 °C for 7 days. After the incubation period, 10% well volume of MTT reagent was mixed into each well and incubated at 37 °C for 24 h. The reagent and media were then aspirated from the wells, to which 50 µL 99% isopropanol was then added, and the plates were read at 570 nm. The absorbance readings from the cells, grown in the presence of the tested compounds, were compared with uninhibited cell growth (using DMSO as the blank) to determine the relative percent viability. The percent viability was determined through the MTT assay. The percent viability is calculated through comparison of a measured value against that of the uninhibited control: %viability = OD570E/OD570P × 100, where OD570E is the reading from the compound-exposed cells, while OD570P is the reading from the uninhibited cells (positive control). Cytotoxic potential is determined by a percent viability of <70%.

[5] = tested on: human monocytic leukemia THP-1 cells; details: assessed in this line formerly, read-out: IC50 (antiproliferative activity); cited from earlier work

Row | SMILES | MIC [1] [µM] | MIC [2] [µM] | IC50 [3] [nM] | MIC (M. smegmatis ATCC 700084) [µM] | viability of M. tuberculosis H37Ra (MTT) [4] [%] | IC50 [5] [nM]
1 | CCCOc1cccc(NC(=O)c2ccc3ccccc3c2O)c1 [Compound 11b, 1-Hydroxy-N-(3-propoxyphenyl)naphthalene-2-carboxamide] | 24 (≈ 7.71 µg/mL) | 49 (≈ 15.7 µg/mL) | 1370 ± 720 | 199 (≈ 64 µg/mL) | 15.13 | –
2 | CCOc1ccccc1NC(=O)c1c(O)ccc2ccccc12 [Compound 3a, N-(2-Ethoxyphenyl)-2-hydroxynaphthalene-1-carboxamide] | 26 (≈ 7.99 µg/mL) | 832 (≈ 256 µg/mL) | > 30000 | 832 (≈ 256 µg/mL) | 30.6 | –
3 | CCOc1ccc(NC(=O)c2c(O)ccc3ccccc23)cc1 [Compound 3c] | 26 (≈ 7.99 µg/mL) | 104 (≈ 32 µg/mL) | > 30000 | 832 (≈ 256 µg/mL) | 9.96 | –
4 | CCCCOc1cccc(NC(=O)c2ccc3ccccc3c2O)c1 [Compound 12b, N-(3-Butoxyphenyl)-1-hydroxynaphthalene-2-carboxamide] | 23 (≈ 7.71 µg/mL) | 47 (≈ 15.8 µg/mL) | 1800 ± 320 | 190 (≈ 63.7 µg/mL) | 9.96 | –
5 | CCC(C)Oc1cccc(NC(=O)c2ccc3ccccc3c2O)c1 (stereo not drawn) [Compound 14b, N-[3-(But-2-yloxy)phenyl]-1-hydroxynaphthalene-2-carboxamide] | 23 (≈ 7.71 µg/mL) | 47 (≈ 15.8 µg/mL) | 1170 ± 380 | 12 (≈ 4.02 µg/mL) | 9.96 | –
6 | CCC(C)Oc1ccc(NC(=O)c2c(O)ccc3ccccc23)cc1 (stereo not drawn) [Compound 7c, N-[4-(But-2-yloxy)phenyl]-2-hydroxynaphthalene-1-carboxamide] | 23 (≈ 7.71 µg/mL) | 95 (≈ 31.9 µg/mL) | > 30000 | 12 (≈ 4.02 µg/mL) | 8.86 | –
7 | CCC(C)Oc1cccc(NC(=O)c2c(O)ccc3ccccc23)c1 (stereo not drawn) [Compound 7b, N-[3-(But-2-yloxy)phenyl]-2-hydroxynaphthalene-1-carboxamide] | 23 (≈ 7.71 µg/mL) | 47 (≈ 15.8 µg/mL) | > 30000 | 12 (≈ 4.02 µg/mL) | 7.38 | –
8 | CC(C)Oc1ccc(NC(=O)c2c(O)ccc3ccccc23)cc1 [Compound 6c, 2-Hydroxy-N-[4-(prop-2-yloxy)phenyl]naphthalene-1-carboxamide] | 25 (≈ 8.03 µg/mL) | 99 (≈ 31.8 µg/mL) | > 30000 | 796 (≈ 256 µg/mL) | 8.96 | –
9 | CCCOc1ccc(NC(=O)c2c(O)ccc3ccccc23)cc1 [Compound 4c, 2-Hydroxy-N-(4-propoxyphenyl)naphthalene-1-carboxamide] | 12 (≈ 3.86 µg/mL) | 99 (≈ 31.8 µg/mL) | > 30000 | 398 (≈ 128 µg/mL) | 5.90 | –
10 | CC[C@@]1(O)C(=O)OCc2c1cc1n(c2=O)Cc2cc3ccccc3nc2-1 [camptothecin] | – | – | – | – | – | 160 ± 70
11 | CCCCOc1cccc(NC(=O)c2c(O)ccc3ccccc23)c1 [Compound 5b, N-(3-Butoxyphenyl)-2-hydroxynaphthalene-1-carboxamide] | 23 (≈ 7.71 µg/mL) | 190 (≈ 63.7 µg/mL) | > 30000 | 381 (≈ 128 µg/mL) | 7.38 | –

Source: publication PMC6273036, “N-Alkoxyphenylhydroxynaphthalenecarboxamides and Their Antimycobacterial Activity” (Molecules, 2016)
